Assay results published in patent US20150231147A1, “METHODS FOR ACUTE AND LONG-TERM TREATMENT OF DRUG ADDICTION” (DemeRx, Inc., priority 2014, published 2015).
“Also recorded” adds a separate entry of the source.

What was measured:
[1] = system: healthy, drug-free male volunteers; test: Safety and tolerability of noribogaine in healthy humans (adverse events, vital signs, ECG); assay type: in vivo, human
Description: Pulse oximetry and capnography data were collected continuously using a GE Carescape B650 monitoring system from 2 hours prior to dosing and until six hours after dosing, and thereafter at 12, 24, 48 and 72 hours post-dosing. […] Pupillary miosis was assessed by pupillometry.
(§1) Safety and tolerability of noribogaine were tested in the group of volunteers from Example 1. […] Safety evaluations included clinical monitoring, recording of adverse events (AEs), safety laboratory tests, vital signs, ECG telemetry from −2 h to 6 h after dosing, and 12-lead electrocardiograms (ECGs) up to 216 hours post-dosing.

[2] = system: healthy, drug-free male volunteers; test: Cold pressor test (analgesic effect); assay type: in vivo, human
Description: Analgesic effect was assessed based on duration of hand immersion in ice water and on visual analog scale (VAS) pain scores upon hand removal from the water bath.
as §1

Compound: CC[C@H]1CC2C[C@H]3c4[nH]c5ccc(O)cc5c4CCN(C2)C13 [Noribogaine]
- Adverse events, Mild ([1]; healthy volunteers, 3 mg dose): Dizziness; also recorded: Epistaxis; also recorded: Headache; also recorded: Back pain
- Adverse events, Moderate ([1]; healthy volunteers, 3 mg dose): Headache
- number of adverse events reported ([1]; healthy volunteers, 3 mg dose group): five adverse events were reported by two subjects
- Adverse events, Mild ([1]; healthy volunteers, 10 mg dose): Headache
- number of adverse events reported ([1]; healthy volunteers, 10 mg dose group): one adverse event was reported by single subjects
- Adverse events, Mild ([1]; healthy volunteers, 30 mg dose): Headache
- number of adverse events reported ([1]; healthy volunteers, 30 mg dose group): one adverse event was reported by single subjects
- changes in oximetry, capnography, respiratory rate ([1]; healthy volunteers, 3-60 mg): no changes in oximetry or capnography, or changes in respiratory rate
- changes in vital signs or safety laboratory tests ([1]; healthy volunteers, 3-60 mg): no changes in vital signs or safety laboratory tests of note
- QTcF values ([1]; healthy volunteers, 3-60 mg, at any time): ≤ 500 ms
- intensity of adverse events ([1]; healthy volunteers, all groups, all resolved prior to study completion): mild-moderate intensity
- single increase in QTcF ([1]; one subject dosed with 10 mg, 24 hours post-dosing): > 60 ms
- VAS pain scores, each dose group compared with placebo by ANOVA ([2]; after adjusting for baseline differences, p=0.17): no statistically significant differences
- duration of hand immersion, each dose group compared with placebo by ANOVA ([2]; after adjusting for baseline differences, p>0.9): no statistically significant differences
- analgesic effect in the cold pressor test ([2]; healthy volunteers, 3-60 mg single oral doses, 1° C. water): no analgesic effect
